Reference: a compilation of properties of binary mixtures (doi:10.1016/j.jct.2015.07.015)

Experiment: xn = mol fraction of the nth substance listed
Conditions: 101 kPa

C=CC[n+]1ccn(C)c1.[Cl-] + O
viscosity (298.15 K, x2 = 0.045): 1884 mPa·s | viscosity (298.15 K, x2 = 0.091): 1416 mPa·s | viscosity (298.15 K, x2 = 0.126): 1090 mPa·s | viscosity (298.15 K, x2 = 0.152): 887 mPa·s | viscosity (298.15 K, x2 = 0.335): 259 mPa·s | viscosity (303.15 K, x2 = 0.045): 1137 mPa·s | viscosity (303.15 K, x2 = 0.091): 891 mPa·s | viscosity (303.15 K, x2 = 0.126): 691 mPa·s | viscosity (303.15 K, x2 = 0.152): 580 mPa·s | viscosity (303.15 K, x2 = 0.193): 459 mPa·s | viscosity (303.15 K, x2 = 0.267): 293 mPa·s | viscosity (313.15 K, x2 = 0.091): 392 mPa·s | viscosity (313.15 K, x2 = 0.152): 270 mPa·s | viscosity (313.15 K, x2 = 0.193): 221 mPa·s | viscosity (313.15 K, x2 = 0.267): 151 mPa·s | viscosity (313.15 K, x2 = 0.335): 101 mPa·s | viscosity (323.15 K, x2 = 0.045): 232 mPa·s | viscosity (323.15 K, x2 = 0.091): 196 mPa·s | viscosity (323.15 K, x2 = 0.126): 164 mPa·s | viscosity (323.15 K, x2 = 0.152): 147 mPa·s | viscosity (323.15 K, x2 = 0.193): 121 mPa·s | viscosity (323.15 K, x2 = 0.267): 86 mPa·s | viscosity (328.15 K, x2 = 0.045): 167 mPa·s | viscosity (328.15 K, x2 = 0.091): 144 mPa·s | viscosity (328.15 K, x2 = 0.126): 123 mPa·s | viscosity (328.15 K, x2 = 0.152): 108 mPa·s | viscosity (328.15 K, x2 = 0.193): 91 mPa·s | viscosity (328.15 K, x2 = 0.267): 67.1 mPa·s | viscosity (328.15 K, x2 = 0.335): 48.6 mPa·s | viscosity (333.15 K, x2 = 0.045): 124 mPa·s | viscosity (333.15 K, x2 = 0.126): 92 mPa·s | viscosity (333.15 K, x2 = 0.152): 84 mPa·s | viscosity (333.15 K, x2 = 0.193): 71 mPa·s | viscosity (333.15 K, x2 = 0.267): 53.1 mPa·s | viscosity (333.15 K, x2 = 0.335): 39.3 mPa·s | viscosity (343.15 K, x2 = 0.045): 73 mPa·s | viscosity (343.15 K, x2 = 0.091): 64.9 mPa·s | viscosity (343.15 K, x2 = 0.126): 56.3 mPa·s | viscosity (343.15 K, x2 = 0.152): 51.7 mPa·s | viscosity (343.15 K, x2 = 0.193): 45 mPa·s | viscosity (343.15 K, x2 = 0.267): 35 mPa·s | viscosity (343.15 K, x2 = 0.335): 26.8 mPa·s | viscosity (353.15 K, x2 = 0.045): 46.2 mPa·s | viscosity (353.15 K, x2 = 0.091): 41.8 mPa·s | viscosity (353.15 K, x2 = 0.152): 34.3 mPa·s | viscosity (353.15 K, x2 = 0.193): 30.4 mPa·s | viscosity (353.15 K, x2 = 0.335): 19.2 mPa·s | viscosity (363.15 K, x2 = 0.045): 31.2 mPa·s | viscosity (363.15 K, x2 = 0.152): 24 mPa·s | viscosity (363.15 K, x2 = 0.193): 21.6 mPa·s | viscosity (363.15 K, x2 = 0.267): 17.7 mPa·s | viscosity (363.15 K, x2 = 0.335): 14.26 mPa·s | viscosity (373.15 K, x2 = 0.045): 22.21 mPa·s | viscosity (373.15 K, x2 = 0.091): 20.53 mPa·s | viscosity (373.15 K, x2 = 0.152): 17.6 mPa·s | viscosity (373.15 K, x2 = 0.335): 10.98 mPa·s

CC(=O)[O-].CC[n+]1ccn(C)c1 + O
viscosity (298.15 K, x2 = 0.072): 124 mPa·s | viscosity (298.15 K, x2 = 0.102): 119 mPa·s | viscosity (298.15 K, x2 = 0.132): 112 mPa·s | viscosity (298.15 K, x2 = 0.188): 100 mPa·s | viscosity (298.15 K, x2 = 0.355): 75 mPa·s | viscosity (303.15 K, x2 = 0.072): 92 mPa·s | viscosity (303.15 K, x2 = 0.102): 89 mPa·s | viscosity (303.15 K, x2 = 0.188): 76 mPa·s | viscosity (303.15 K, x2 = 0.266): 66 mPa·s | viscosity (303.15 K, x2 = 0.355): 58 mPa·s | viscosity (313.15 K, x2 = 0.072): 55.4 mPa·s | viscosity (313.15 K, x2 = 0.102): 53.6 mPa·s | viscosity (313.15 K, x2 = 0.132): 51.1 mPa·s | viscosity (313.15 K, x2 = 0.266): 41.8 mPa·s | viscosity (313.15 K, x2 = 0.355): 36.9 mPa·s | viscosity (323.15 K, x2 = 0.072): 35.4 mPa·s | viscosity (323.15 K, x2 = 0.102): 34.5 mPa·s | viscosity (323.15 K, x2 = 0.188): 30.6 mPa·s | viscosity (323.15 K, x2 = 0.266): 27.7 mPa·s | viscosity (323.15 K, x2 = 0.355): 24.8 mPa·s | viscosity (333.15 K, x2 = 0.072): 24.3 mPa·s | viscosity (333.15 K, x2 = 0.102): 23.8 mPa·s | viscosity (333.15 K, x2 = 0.132): 22.9 mPa·s | viscosity (333.15 K, x2 = 0.355): 17.7 mPa·s | viscosity (343.15 K, x2 = 0.072): 17.63 mPa·s | viscosity (343.15 K, x2 = 0.102): 17.23 mPa·s | viscosity (343.15 K, x2 = 0.132): 16.73 mPa·s | viscosity (343.15 K, x2 = 0.188): 15.69 mPa·s | viscosity (343.15 K, x2 = 0.266): 14.44 mPa·s | viscosity (353.15 K, x2 = 0.072): 13.21 mPa·s | viscosity (353.15 K, x2 = 0.266): 11 mPa·s | viscosity (363.15 K, x2 = 0.188): 9.32 mPa·s | viscosity (363.15 K, x2 = 0.266): 8.67 mPa·s | viscosity (363.15 K, x2 = 0.355): 8 mPa·s | viscosity (373.15 K, x2 = 0.072): 8.19 mPa·s | viscosity (373.15 K, x2 = 0.102): 8.07 mPa·s | viscosity (373.15 K, x2 = 0.132): 7.86 mPa·s | viscosity (373.15 K, x2 = 0.266): 6.98 mPa·s | viscosity (373.15 K, x2 = 0.355): 6.47 mPa·s
